Results on one molecule are retold here after PubChem BioAssay AID434941 (Johns Hopkins Ion Channel Center, 2010).

pEC50: −log10 of the molar value.

The target in the assay is Short transient receptor potential channel 4 (Mus musculus) (UniProt Q9QUQ5). Kind of assay: potentiation of DAMGO-evoked TRPC4 calcium signal – cell-based, HEK293 TRPC4/mu-opioid, Fluo-4 calcium, EC20 DAMGO, dose response (AID 434941).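 Note: calcium entry triggered by an EC20 dose of DAMGO at the co-expressed mu-opioid receptor.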 Conditions: HEK293 TRPC4/mu-opioid cells, Fluo-4 calcium fluorescence.
Short transient receptor potential channel 4 (Mus musculus), sequence (Q9QUQ5 whole entry, looked up): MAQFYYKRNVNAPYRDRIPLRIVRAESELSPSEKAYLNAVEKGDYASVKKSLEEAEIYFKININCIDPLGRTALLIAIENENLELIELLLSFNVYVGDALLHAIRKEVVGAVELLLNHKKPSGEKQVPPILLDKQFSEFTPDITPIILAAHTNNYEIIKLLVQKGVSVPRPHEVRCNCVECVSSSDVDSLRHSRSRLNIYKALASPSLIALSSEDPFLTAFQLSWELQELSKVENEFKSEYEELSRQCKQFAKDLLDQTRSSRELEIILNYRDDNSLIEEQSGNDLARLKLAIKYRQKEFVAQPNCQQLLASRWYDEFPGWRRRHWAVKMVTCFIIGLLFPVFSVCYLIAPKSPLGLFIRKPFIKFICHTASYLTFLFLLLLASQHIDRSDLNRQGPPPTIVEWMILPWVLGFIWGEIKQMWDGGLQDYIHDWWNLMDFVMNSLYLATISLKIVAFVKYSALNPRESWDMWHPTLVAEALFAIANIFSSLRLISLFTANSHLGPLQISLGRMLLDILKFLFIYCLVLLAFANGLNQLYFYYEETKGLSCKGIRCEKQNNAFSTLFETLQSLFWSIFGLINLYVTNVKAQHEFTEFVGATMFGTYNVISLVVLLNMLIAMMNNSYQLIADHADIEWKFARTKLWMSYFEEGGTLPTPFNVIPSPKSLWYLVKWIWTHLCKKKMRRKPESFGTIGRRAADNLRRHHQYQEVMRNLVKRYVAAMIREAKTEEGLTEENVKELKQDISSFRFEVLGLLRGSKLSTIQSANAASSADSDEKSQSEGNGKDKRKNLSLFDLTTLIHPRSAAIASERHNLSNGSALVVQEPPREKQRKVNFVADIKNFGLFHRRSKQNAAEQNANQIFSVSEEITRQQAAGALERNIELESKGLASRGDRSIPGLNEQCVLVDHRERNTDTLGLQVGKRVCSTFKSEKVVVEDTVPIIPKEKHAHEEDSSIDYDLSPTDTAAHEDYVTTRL

For `Cn1c(O)c(/C=N/NC(=O)c2cc3ccccc3cc2O)c2ccccc21`, the pEC50 was 5.22.
